Experimental data from patent publication US20090023813A1, “Diphenyl Urea Derivatives” (Arpida AG, priority 2005, published 2009).
In brackets after ≈: the same amount, converted by molar mass. Read-outs that look alike come from different tables or passages of the source.

How the values were obtained:
Assay type in all cases: cell-based
[1] = tested on: S. viridans UHC7; assay: Antimicrobial susceptibility testing of streptococci (CLSI, Todd Hewitt Broth without blood); conditions: Streptococcus viridans, representative pathogens for dental infections, read-out: Minimum Inhibitory Concentration (MIC) S. viridans UHC7
Experimental: (§1) Antimicrobial susceptibility testing was performed in accordance with the Clinical and Laboratory Standards Institute (CLSI). Clinical and Laboratory Standards Institute (CLSI; formerly NCCLS): Methods for Dilution Antimicrobial Susceptibility Tests for Bacteria That Grow Aerobically; Approved Standard—Seventh Edition (2006). Clinical and Laboratory Standards Institute document M7-A7. Streptococci (S. pneumoniae, S. pyogenes, S. viridans) were tested following the CLSI methodology with the exception that Todd Hewitt Broth without blood was used. Anaerobic bacteria (P. acnes, B. distasonis) were tested following CLSI (formerly NCCLS) guidelines except for using microbroth dilutions in Wilkins Chalgren Broth. National Committee for Clinical Laboratory Standards (NCCLS). Methods for Anti-microbial Susceptibility Testing of Anaerobic Bacteria; Approved Standard—Sixth Edition (2004). NCCLS document M11-A6.

[2] = tested on: S. pneumoniae 1/1; assay: as above; conditions: Streptococcus pneumoniae, representative pathogens for ocular infections, read-out: Minimum Inhibitory Concentration (MIC) S. pneumoniae 1/1
Experimental: as §1

[3] = tested on: S. pyogenes GAS-1; assay: as above; conditions: for MIC: Streptococcus pyogenes, GAS1, representative pathogens for ocular infections, read-out: Minimum Inhibitory Concentration (MIC) S. pyogenes GAS-1; for Minimum Inhibitory Concentration (MIC) S. pyogenes GAS-1: representative pathogens for skin infections
Experimental: as §1

[4] = tested on: S. aureus MRSA 39; assay: Antimicrobial susceptibility testing (CLSI broth dilution MIC); conditions: for MIC: Staphylococcus aureus, MRSA, representative pathogens for nasal colonization, read-out: Minimum Inhibitory Concentration (MIC) S. aureus MRSA 39
Experimental: (§2) Antimicrobial susceptibility testing was performed in accordance with the Clinical and Laboratory Standards Institute (CLSI).
(§3) Clinical and Laboratory Standards Institute (CLSI; formerly NCCLS): Methods for Dilution Antimicrobial Susceptibility Tests for Bacteria That Grow Aerobically; Approved Standard—Seventh Edition (2006). Clinical and Laboratory Standards Institute document M7-A7.

[5] = tested on: E. faecalis VanB E80-8; assay: as above; conditions: for MIC: Enterococcus faecalis, VANBE808, representative pathogens for skin infections, read-out: Minimum Inhibitory Concentration (MIC) E. faecalis VanB E80-8; for Minimum Inhibitory Concentration (MIC) E. faecalis VanB E80-8: representative pathogens for gastro-intestinal infections
Experimental: as §2, §3

[6] = tested on: S. aureus ATCC 25923; assay: as above; conditions: Staphylococcus aureus, ATCC25923
Experimental: as §2, §3

[7] = tested on: S. aureus MRSA 101; assay: as above; conditions: Staphylococcus aureus
Experimental: as §2, §3

[8] = tested on: S. epidermidis MRSE 70; assay: as above; conditions: for MIC: Staphylococcus epidermidis, MRSE, representative pathogens for nasal colonization, read-out: Minimum Inhibitory Concentration (MIC) S. epidermidis MRSE 70
Experimental: as §2, §3

[9] = tested on: B. distasonis 5770; assay: Antimicrobial susceptibility testing of anaerobic bacteria (microbroth dilution, Wilkins Chalgren Broth); conditions: Parabacteroides distasonis, representative pathogens for gastro-intestinal infections, read-out: Minimum Inhibitory Concentration (MIC) B. distasonis 5770
Experimental: as §1, with “(CLSI).” for “(CLSI). Clinical and Laboratory Standards Institute (CLSI; formerly NCCLS): Methods for Dilution Antimicrobial Susceptibility Tests for Bacteria That Grow Aerobically; Approved Standard—Seventh Edition (2006). Clinical and Laboratory Standards Institute document M7-A7.”

[10] = tested on: P. acnes 6390; assay: as above; conditions: Cutibacterium acnes, representative pathogens for skin infections, read-out: Minimum Inhibitory Concentration (MIC) P. acnes 6390
Experimental: as §1, with “(CLSI).” for “(CLSI). Clinical and Laboratory Standards Institute (CLSI; formerly NCCLS): Methods for Dilution Antimicrobial Susceptibility Tests for Bacteria That Grow Aerobically; Approved Standard—Seventh Edition (2006). Clinical and Laboratory Standards Institute document M7-A7.”

[11] = representative pathogens for ocular infections
[12] = representative pathogens for skin infections
[13] = representative pathogens for nasal colonization, read-out: Minimum Inhibitory Concentration (MIC) S. aureus ATCC 25923
[14] = representative pathogens for ocular infections, read-out: Minimum Inhibitory Concentration (MIC) S. aureus 25923
[15] = representative pathogens for nasal colonization, read-out: Minimum Inhibitory Concentration (MIC) S. aureus MRSA 101
[16] = representative pathogens for ocular infections, read-out: Minimum Inhibitory Concentration (MIC) S. aureus MRSA101

Row | MIC [1] [µg/mL] | MIC [2] [µg/mL] | MIC [3] [µg/mL] | Minimum Inhibitory Concentration (MIC) S. pyogenes GAS-1 [3] [micrograms/ml] | MIC [4] [µg/mL] | Minimum Inhibitory Concentration (MIC) S. aureus MRSA 39 [4, 11] [micrograms/ml] | Minimum Inhibitory Concentration (MIC) S. aureus MRSA 39 [4, 12] [micrograms/ml] | MIC [5] [µg/mL] | Minimum Inhibitory Concentration (MIC) E. faecalis VanB E80-8 [5] [micrograms/ml] | MIC [6, 13] [µg/mL] | MIC [6, 14] [µg/mL] | MIC [7, 15] [µg/mL] | MIC [7, 16] [µg/mL] | MIC [8] [µg/mL] | Minimum Inhibitory Concentration (MIC) S. epidermidis MRSE 70 [8, 11] [micrograms/ml] | Minimum Inhibitory Concentration (MIC) S. epidermidis MRSE 70 [8, 12] [micrograms/ml] | MIC [9] [µg/mL] | MIC [10] [µg/mL] | SMILES
1 | 0.5 (≈ 1.08 µM) | 0.125 (≈ 0.271 µM) | 0.25 (≈ 0.542 µM) | 0.25 | 0.25 (≈ 0.542 µM) | 0.25 | 0.25 | 2 (≈ 4.33 µM) | 2 | 0.5 (≈ 1.08 µM) | 0.5 (≈ 1.08 µM) | 0.125 (≈ 0.271 µM) | 0.125 (≈ 0.271 µM) | 0.25 (≈ 0.542 µM) | 0.25 | 0.25 | 0.5 (≈ 1.08 µM) | ≤ 0.03 | O=C(Nc1cc(Br)cc(C(F)(F)F)c1)Nc1ccc(Cl)c(C(F)(F)F)c1 [Example 1, 1-(3-Bromo-5-trifluoromethyl-phenyl)-3-(4-chloro-3-trifluoromethyl-phenyl)-urea]
2 | 0.5 (≈ 1.2 µM) | 0.06 (≈ 0.144 µM) | 0.25 (≈ 0.599 µM) | 0.25 | 0.25 (≈ 0.599 µM) | 0.25 | 0.25 | 1 (≈ 2.4 µM) | 1 | 0.25 (≈ 0.599 µM) | 0.25 (≈ 0.599 µM) | 0.125 (≈ 0.3 µM) | 0.125 (≈ 0.3 µM) | 0.25 (≈ 0.599 µM) | 0.25 | 0.25 | 1 (≈ 2.4 µM) | ≤ 0.03 | O=C(Nc1cc(Cl)cc(C(F)(F)F)c1)Nc1ccc(Cl)c(C(F)(F)F)c1 [Example 2, 1-(3-Chloro-5-trifluoromethyl-phenyl)-3-(4-chloro-3-trifluoromethyl-phenyl)-urea]
3 | 1 (≈ 2.09 µM) | 0.25 (≈ 0.523 µM) | 0.25 (≈ 0.523 µM) | 0.25 | 0.25 (≈ 0.523 µM) | 0.25 | 0.25 | 1 (≈ 2.09 µM) | 1 | 0.125 (≈ 0.262 µM) | 0.125 (≈ 0.262 µM) | 0.5 (≈ 1.05 µM) | 0.5 (≈ 1.05 µM) | 0.25 (≈ 0.523 µM) | 0.25 | 0.25 | 1 (≈ 2.09 µM) | ≤ 0.03 | FC(F)(F)c1cc(Br)cc(NC(=S)Nc2ccc(Cl)c(C(F)(F)F)c2)c1 [Example 3, 1-(3-Bromo-5-trifluoromethyl-phenyl)-3-(4-chloro-3-trifluoromethyl-phenyl)-thiourea]
